Reference: patent US4879295A, “N-tetrazolyl thiazolecarboxyamide derivatives and their use” (Sawai Pharmaceutical Co., Ltd., priority 1986, dated 1989)

Key:
[1] = test system: passive cutaneous anaphylaxis (PCA); assay: Anti-passive cutaneous anaphylaxis (PCA) activity in rats, 48-hours PCA (TEST EXAMPLE 1); format: in vivo, rat (Wistar strain male); conditions: Rattus norvegicus
Description: Anti-passive cutaneous anaphylaxis (PCA) activity in rats
(§1) Wistar strain male rats (6 weeks old) were purchased from Shizuoka Experimental Animal Agricultural Cooperative (Japan), habituated to a breeding environment for 1 week before using for the experiment.
(2) Preparation of antiserum
Preparation of antiserum was carried out according to the method described in J. Immunol. 106, 1002-1011 (1971).
(§2) Thus, Ascaris suum extract was dinitrophenylated (DNP-As) and infused subcutaneously together with dead Bordetella pertussis at four sites on the foot-pad. After 5 days, the rats were boostered with DNP-As (1 mg) at the dosal muscle. After 3 days, bloods samples were collected and serum was separated which was used as anti DNP-As antiserum. The titer of the antiserum was measured by rats 48-hours PCA and found to be 1:200.
Rats were sensitized with 35 times dilution of anti DNP-As antiserum administered at two sites in the pre-clipped right dosal skin. After 48 hours, DNP-As (500 μg in 0.5% Evans blue-physiological saline (1 ml) was administered into caudal vein to elicit the reaction. Then, 30 minutes later, the animals were decapitated, the dosal skin was peeled, two sensitized areas as well as one control area were cut off and analyzed for Evans blue exudation which was used as an indicative of the reaction according to the method disclosed in Microbiol. Immunol. 22, 89-101 (1978). Thus, cut skins were treated with 1N-NaOH (1 ml) and incubated at 37° C. for 16 hours to dissolve the skin tissue. A mixed solution (9 ml) of 0.6N-phosphoric acid-acetone (5:13) was added and the mixture was centrifuged (300 r.p.m) for 15 minutes. The supernatant was assayed for absorption at 620 nm and the exudation of Evans blue was determined. Test compounds (I) were administered either into caudal vein 5 minutes before the elicitation of the reaction, or perorally as a suspension in 0.5% 1 hour before the elicitation.

[2] = test system: passive cutaneous anaphylaxis (PCA); assay: Anti-passive cutaneous anaphylaxis (PCA) activity in rats, P.O. only (TEST EXAMPLE 2); format: in vivo, rat (Wistar strain male); conditions: 1 hour before elicitation
Description: as §1, §2
Rats were sensitized with 35 times dilution of anti DNP-As antiserum administered at two sites in the pre-clipped right dosal skin. […] The supernatant was assayed for absorption at 620 nm and the exudation of Evans blue was determined. […]

[3] = iv, I.V. (caudal vein), 5 minutes before elicitation
[4] = po, P.O., 1 hour before elicitation

Compound | inhibition in vivo at 2 mg/kg [1, 3] | also measured
O=C(Nc1nnn[nH]1)c1csc(-c2ccccc2O)n1 [Compound I-1] | 99% | inhibition in vivo at 0.5 mg/kg ([1]; iv, I.V. (caudal vein), 0.5 mg/kg, 5 minutes before elicitation): 67%; inhibition in vivo at 1.5 mg/kg ([1]; iv, I.V. (caudal vein), 1.5 mg/kg, 5 minutes before elicitation): 98%
COc1ccccc1-c1nc(C(=O)Nc2nnn[nH]2)cs1 [Compound I-2] | 99% | inhibition in vivo at 50 mg/kg [1, 4]: 60%
COc1cccc(-c2nc(C(=O)Nc3nnn[nH]3)cs2)c1 [Compound I-3, 2-(3-methoxyphenyl)-N-(1H-tetrazole-5-yl)-4-thiazolecarboxamide] | 99% | inhibition in vivo at 30 mg/kg [1, 4]: 77%
COc1ccc(-c2nc(C(=O)Nc3nnn[nH]3)cs2)cc1 [Compound I-4] | 98% | 
Cc1ccc(-c2nc(C(=O)Nc3nnn[nH]3)cs2)cc1 [Compound I-7] |  | inhibition in vivo at 30 mg/kg [1, 4]: 76%
O=C(Nc1nnn[nH]1)c1csc(-c2cccc(C(F)(F)F)c2)n1 [Compound I-17, 2-(3-trifluoromethylphenyl)-N-(1H-tetrazole-5-yl)-4-thiazolecarboxamide] | 98% | 
O=C(Nc1nnn[nH]1)c1csc(-c2cc(Cl)ccc2O)n1 [Compound I-19, 2-(5-chloro-2-hydroxyphenyl)-N-(1H-tetrazole-5-yl)-4-thiazolecarboxamide] | 97% | 
COc1ccc(O)c(-c2nc(C(=O)Nc3nnn[nH]3)cs2)c1 [Compound I-20, 2-(2-hydroxy-5-methoxyphenyl)-N-(1H-tetrazole-5-yl)-4-thiazolecarboxamide] | 93% | 
O=C(Nc1nnn[nH]1)c1csc(-c2cc([N+](=O)[O-])ccc2O)n1 [Compound I-21, 2-(2-hydroxy-5-nitrophenyl)-N-(1H-tetrazole-5-yl)-4-thiazolecarboxamide] | 98% | 
Cc1ccc(O)c(-c2nc(C(=O)Nc3nnn[nH]3)cs2)c1 [Compound I-22, 2-(2-hydroxy-5-methylphenyl)-N-(1H-tetrazole-5-yl)-4-thiazolecarboxamide] | 81% | 
O=C(Nc1nnn[nH]1)c1csc(-c2ccccc2OCc2ccccc2)n1 [Compound I-23, 2-(2-benzyloxyphenyl)-N-(1H-tetrazole-5-yl)-4-thiazolecarboxamide] | 98% | 
Cc1ccc(-c2nc(C(=O)Nc3nnn[nH]3)c(C)s2)cc1 [Compound I-27, 2-(4-methylphenyl)-5-methyl-N-(1H-tetrazole-5-yl)-4-thiazolecarboxamide] |  | inhibition in vivo at 25 mg/kg ([1]; po, P.O., 25 mg/kg, 1 hour before elicitation): 91%
Cc1ccc(-c2nc(C(=O)Nc3nnn[nH]3)c(C)s2)s1 [Compound I-42, 2-(5-Methyl-2-thienyl)-5-methyl-N-(1H-tetrazole-5-yl)-4-thiazolecarboxamide] |  | Inhibition ([2]; 25 mg/kg): 73%
O=C(O)c1cc(=O)c2c(OCC(O)COc3cccc4oc(C(=O)O)cc(=O)c34)cccc2o1 [DSCG, disodium cromoglicate, reference compound] |  | inhibition in vivo at 5 mg/kg ([1]; iv, I.V. (caudal vein), 5 mg/kg, 5 minutes before elicitation): 92%
COc1ccc(/C=C/C(=O)Nc2ccccc2C(=O)O)cc1OC [Tranilast, tranilast, reference compound] |  | inhibition in vivo at 50 mg/kg [1, 4]: 0%; Inhibition ([2]; 50 mg/kg): 0%
